Results from patent publication US4591601A, “Anticonvulsant dioxolane methane sulfamates” (McNeilab, Inc., priority 1985, dated 1986).

These compounds were tested on tonic extensor seizure (assay: maximal electroshock test (MES), block of tonic extensor seizure). Conditions: Mus musculus, ip, 0.5 h; mice, i.p., tested 30 minutes after injection; 1b in aqueous solution, Examples 2 and 3 as suspensions with Tween 80 and water; probit analysis.
Assay type: in vivo, mice (male albino, Swiss Webster)
Description: The compounds of formula (I) are useful as anticonvulsant agents. The anticonvulsant activity of the subject compounds was determined using a standard "maximal electroshock test" (MES). In this test, activity is indicated by a block of the tonic extensor seizure caused by application of an electric shock to mice via corneal electrodes, as described by Swinyard et al in J. Pharmacol. Exptl. Therap. 106, 319 (1952). A more recent description of current anticonvulsant drug screening is given in Swinyard et al in Epilepsia 19, 409 (1978). Non-fasted male albino mice of the Swiss Webster strain (Royal-Hart Laboratories, New Hampton, N.Y.) weighing 18-24 grams were used in this test. Six to eight groups of ten mice each were used per ED50 determination. The product of Example 1b was administered in aqueous solution while the compounds produced in Examples 2 and 3 were administered as suspensions prepared with Tween 80 and water. Testing was conducted at 30 minutes following intraperitoneal injection of the test compound. A group of ten mice injected with saline 10 ml/kg i.p. and tested 30 minutes later served as controls. ED50 's were calculated using a computerized probit analysis procedure.

Row | SMILES | ED50 [mg/kg]
1 | CC1(C)OCC(COS(N)(=O)=O)O1 (stereo not drawn) [Example 1b, (2,2-Dimethyl-1,3-dioxolan-4-yl)methyl sulfamic acid ester] | 105
2 | CCCCCCCCCC1(C)OCC(COS(N)(=O)=O)O1 (stereo not drawn) [Example 2, (2-Methyl-2-nonyl-1,3-dioxolan-4-yl)methyl sulfamic acid ester Hydrate compound with 2-undecanone (10:1:2)] | 319
3 | NS(=O)(=O)OCC1COC2(CCCCC2)O1 (stereo not drawn) [Example 3, (1,4-Dioxaspiro[4.5]dec-2-yl)methyl Sulfamic acid ester] | 169
